# Laboratory results: US20030073654A1, “Stabilized transient gene expression” (Genespan Corporation, priority 1996, published 2003)
# Key:
# [1] = test system: SW480 P3 (ATCC #CCL228) human colon carcinoma cells; test: Screening assay for enhancement of transient expression (β-galactosidase gene, liposomal transfection, 6-well plates); assay type: cell-based; details: for G Factor (G14): Table 1, values without asterisk, days 4-14 after transfection; for X Factor / K Factor: Table 1; for X Factor: cumulative β-galactosidase vs control, first four days after transfection, compound at the mM given in the table; for K Factor: ratio of first order rate constants of change in expression, control vs compound
# Excerpt: These parameters are called the “X” factor, the “G” factor, and the “K” factor. [formula]
# This factor reflects the extent to which a chemical compound added to a transfected cell enhances stabilizes transient expression for the first four days following transfection. […] For example, if expression is doubled in the presence of a compound, […]. […] X may be calculated similarly when the agent in question is a mixture of more than one chemical compound.
# Cumulative protein expression, i.e., the values for “A” and “C”, is measured by summing the values measured daily in aliquots of the cultured cells.
# 2. G factors. G factors differ from the X factor only with respect to the time period evaluated. For calculating a G factor, the amount of protein expressed is measured from days 4-7 or days 4-14, where day 0 is the day on which the foreign DNA is added to the cells. The subscripts denote which of the two time periods provided the basis for measurement. […] As for the X factor, [formula]
# 3. K factor. The K factor is the ratio of the rate constants for the change in the foreign DNA expression in control transfected cells and in cells exposed to a chemical compound of the subject invention. K is determined according to the following equation: [formula]
# wherein “k(DNA)” is the first order rate constant for the change in concentration of the protein expressed from the transgenic DNA, which is expressing protein as a function of time, i.e., [formula]
# Values for k(DNA) are derived by using a computer program that plots the log of the foreign protein concentration against time, using the results of transgenic protein measurements that begin about 24 hours after the foreign DNA has been added to the cell. […] However, the program calculates a “best fit” line for each data set, and determines the slope of that portion of the resulting line that corresponds to the period during which protein production is changing. […] Thus, the slope is calculated during this period of decline to provide values for k(DNA) and K that can be compared for the purpose of comparing the efficacy of different chemical compounds.
# SW480 P3 (ATCC #CCL228) human colon carcinoma cells (typically, 1×10^6 cells) were plated in the wells of a 6-well tissue culture plate. The number of wells plated reflected the number of days post-transfection during which the experiment would proceed. Each well contained 1 ml of complete media from a 30 ml stock solution containing: 26.4 ml RPMI tissue culture medium, 4 mM L-glutamine, 3.0 ml fetal bovine serum, and 10 μg/ml gentamicin. Cells were cultured at 37° C. in a CO2 incubator with 10% CO2 for 24 hours after being plated, during which time the cells adhered to the plates.
# After the 24 hour pre-incubation step, the transfection step was carried out by removing the RPMI and adding 900 μL OPTI-MEM® (Gibco) medium containing 2 μg of VR1412 DNA (Vical, Inc., San Diego, Calif.), which expresses the bacterial β-galactosidase gene under the control of a cytomegalovirus promoter, and 8 μg of a mixture of cationic lipid (1,2-dimyristyloxyproply-3-dimethyl-hydroxyethyl ammonium bromide (e.g., “DMRIE/DOPE”) mixed in equimolar proportions with dioleoylphosphatidylethanolamine) to yield a lipid:DNA molar ratio of 0.99:1. It should be noted that typical transient transfection protocols employ 10 μg DNA per 10^6 cells, but the protocol described here uses less DNA in order to reduce toxicity to the cells. The plates were then incubated for 4 hours at 37° C.
# After the 4 hour incubation step, 100 μl of heat deactivated fetal bovine serum (to stop transfection), plus 12.0 μl of 50 mg/ml gentamicin were added to each well.
# [2] = pH of aqueous solutions of the compounds; assay type: physicochemical; details: stock solutions prepared in culture media diluted with deionized water
# Method: The pH values shown in Table 1 were determined in aqueous solutions made by diluting stock solutions prepared in culture media with deionized water.
# [3] = Table 1, days 4-7 after transfection
Molecule,G Factor (G14) [1],X Factor [1],K Factor [1],pH (H20) [2],pH (H20) ([2]; listed as glutathione),"G Factor (G7) ([1]; Table 1, values marked with asterisk, days 4-7 after transfection)","G Factor (G7) [1, 3]",effect on transient expression [1]
N[C@@H](CCC(=O)N[C@@H](CS)C(=O)NCC(=O)O)C(=O)O [GLUTATHIONE],34,2,1,3.58,~3,–,–,–
NCC(=O)O [GLYCINE],40,−.34,2,7.27,–,–,–,–
O=C(O)CNC(=O)c1ccccc1 [HIPPURIC ACID],33,2,1,6.46,–,–,–,–
N[C@@H](Cc1c[nH]cn1)C(=O)O [HISTIDINE],6,–,"1, 1",6.75,–,54,–,–
N[C@@H](CCO)C(=O)O [HOMOSERINE],39,77,–,7.4,–,–,–,–
CC[C@H](C)[C@H](N)C(=O)O [ISOLEUCINE],30,−119,–,6.99,–,–,–,–
N=C(N)NCCC[C@H](N)C(=O)O [L-ARGININE],57,–,–,8.66,–,–,11,–
NC(=O)CC[C@H](N)C(=O)O [L-GLUTAMINE],23,−13,–,7.14,–,–,–,–
NCCCC[C@H](N)C(=O)O [L-LYSINE],−10,–,–,8.34,–,–,9,–
C[C@@H](O)[C@H](N)C(=O)O [L-THREONINE],40,28,1,8.14,–,–,–,–
CC(C)C[C@H](N)C(=O)O [LEUCINE],32,−13,–,7.88,–,–,–,–
CSCC[C@H](N)C(=O)O [METHIONINE],36,2,0,7.41,–,–,–,–
CCOC(=O)CC[C@H](NCc1ccc(N)cc1)C(=O)OCC [N-(4-AMINOBENZYL)-L-GLUTAMIC DIETHYLESTER],8,−35,–,6.44,–,–,–,–
CSCC[C@H](NC=O)C(=O)O [N-FORMYL-L-METHIONINE],63,26,–,4.34,–,–,–,–
O=C(O)c1cccnc1 [NICOTINIC ACID],87,12,1,6.91,–,–,–,–
N[C@@H](Cc1ccccc1)C(=O)O [PHENYLALANINE],53,−12,3,6.97,–,–,–,–
O=C(O)[C@@H]1CCCN1 [PROLINE],21,−22,–,7.71,–,–,–,–
NC(=O)SC[C@H](N)C(=O)O [S-CARBAMYL-L-CYSTEINE],−74,−76,–,6.52,–,–,–,–
N[C@@H](CO)C(=O)O [SERINE],104,43,1,7.4,–,–,–,–
O=C([O-])c1ccccc1.[Na+] [SODIUM BENZOATE],−6,−15,1,8.14,–,–,–,–
NCCS(=O)(=O)O [TAURINE],34,−20,2,7.88,–,–,–,–
N[C@@H](Cc1c[nH]c2ccccc12)C(=O)O [TRYPTOPHAN],67,55,2,6.25,–,–,–,–
N[C@@H](Cc1ccc(O)cc1)C(=O)O [TYROSINE],52,36,2,7.88,–,–,–,–
CC(C)[C@H](N)C(=O)O [VALINE],40,−18,2,8.12,–,–,–,–
C[C@H](N)C(=O)O [α-ALANINE],35,31,–,7.27,–,–,–,–
CCC(N)C(=O)O (stereo not drawn) [α-AMINO-n-BUTYRIC ACID],35,−.19,1,7.58,–,–,–,–
O=C(O)CCC(=O)C(=O)O [α-KE[…]],53,7.28,–,3.75,–,–,–,–
NCCC(=O)O [β-ALANINE],33,0.2,1,8.38,–,–,–,–
O=S(=O)(O)CC(O)CN(CCO)CCO (stereo not shown) [′3-[BIS(2HYDROXYETHYL AMINO)]-2-HYDROXYL-′1-PROPANE SULFONIC ACID],−10,−55,–,6.81,–,–,–,–
MELANIN,–,–,–,3.45,–,–,–,significantly suppress transient expression
